In ChEMBL document CHEMBL1131777, “Analogs of 4-(3-bromo-8-methyl-10-methoxy-6,11-dihydro-5H-benzo[5,6]-cyclo hepta[1,2-b]pyridin-11-yl)-1-(4-pyridinylacetyl)piperidine N-oxide as inhibitors of farnesyl protein transferase” (Bioorg Med Chem Lett, 1999):

Target: T1, Protein farnesyltransferase (Homo sapiens, UniProt P49354+P49356)
Assay: In vitro inhibition of human Farnesyltransferase
Format: protein-complex assay
Conditions: not given

| SMILES | IC50 [nM] |
| --- | --- |
| C=Cc1cnc2c(c1)CCc1cc(C)cc(OC)c1C2C1CCN(C(=O)Cc2cc[n+]([O-])cc2)CC1 (configuration not stated) | 59 |
| COc1cc(C)cc2c1C(C1CCN(C(=O)Cc3cc[n+]([O-])cc3)CC1)c1ncccc1CC2 (configuration not stated) | 140 |
| COc1cc(C)cc2c1[C@@H](C1CCN(C(=O)Cc3cc[n+]([O-])cc3)CC1)c1ncc(Br)cc1CC2 | 3.6 |
| CCc1cnc2c(c1)CCc1cc(C)cc(OC)c1C2C1CCN(C(=O)Cc2cc[n+]([O-])cc2)CC1 (configuration not stated) | 74 |
| COc1cc(C)cc2c1C(C1CCN(C(=O)Cc3cc[n+]([O-])cc3)CC1)c1ncc(C3CC3)cc1CC2 (configuration not stated) | 200 |
| COc1cc(C)cc2c1C(C1CCN(C(=O)Cc3cc[n+]([O-])cc3)CC1)c1ncc(C)cc1CC2 (configuration not stated) | 34 |

Target: T1, Protein farnesyltransferase
Assay: Percent inhibition of human Farnesyltransferase
Format: protein-complex assay
Conditions: concentration not given here

| SMILES | inhibition [%] |
| --- | --- |
| COc1cc(C)cc2c1C(C1CCN(C(=O)Cc3cc[n+]([O-])cc3)CC1)c1ncc(C(C)(C)O)cc1CC2 (configuration not stated) | 26 |
